Test results: publication PMC10301603, “Potent and Selective Benzothiazole-Based Antimitotics with Improved Water Solubility: Design, Synthesis, and Evaluation as Novel Anticancer Agents” (Pharmaceutics, 2023)

Tests used:
Type in all cases: cell-based, human
MCF7 cells = test: Immunofluorescence of cellular microtubules (confocal microscopy); details: MCF7, 24 h; 8 and 14 100 nM, 9 500 nM
Experimental: (§1) The 8 × 10^4 HeLa, MCF7, and U87 MG cells were seeded on 0.01% poly-L-lysine pre-coated square glass coverslips ([…]) deposited on 6-well plates (1 coverslip/well) and incubated in complete DMEM medium (see above) at 37 °C and 5% CO2 atmosphere for 24 h. Then, the culture medium was replaced by fresh complete DMEM, and cells were incubated in the presence or absence of selected compounds for 24 h. Untreated cells were used as negative controls. […] In that way, compounds with similar antiproliferative potencies were tested at the same concentrations. HeLa cells were treated with 200 nM of compounds 8 and 14 and 500 nM of compound 9; MCF7 cells were treated with 100 nM of compounds 8 and 14 and 500 nM of compound 9; and U87 MG cells were treated with 50 nM of compound 8 and 100 nM of compounds 9 and 14. After incubation, medium was removed and coverslips were washed three times with PBS, fixed in 4% formaldehyde in PBS for 10 min, permeabilized with 0.5% Triton X-100 (Sigma-Aldrich, St. Louis, MO, USA) in PBS for 90 s at 4 °C, and blocked with 10% BSA in PBS for 30 min. After four washes with PBS, the coverslips were incubated for 1 h with anti-α-tubulin mouse monoclonal antibody (Sigma-Aldrich, St. Louis, MO, USA), and diluted 1:200 in PBS containing 3% BSA. After four washes wish PBS, coverslips were incubated, in darkness, with fluorescent secondary antibody Alexa Fluor 488 goat anti-mouse IgG (Molecular Probes, Invitrogen, Eugenen, OR, USA), and diluted 1:400 in PBS containing 1% BSA for 1.5 h. After four washes with PBS, a drop of ProLong™ Gold Antifade Mountant containing DAPI (ThermoFisher, Waltham, MA, USA) was added for cell nuclei staining. Samples were analyzed via confocal microscopy using a LEICA SP5 microscope DMI-6000V model coupled to a LEICA LAS AF software computer.

HeLa cells [1] = test: as above; details: 24 h, 8 and 14 200 nM, 9 500 nM
Experimental: as §1

U87MG cells [2] = test: as above; details: 24 h, 8 50 nM, 9 and 14 100 nM
Experimental: as §1

HT-29 cells [3] = test: Cell growth inhibition (MTT) in the presence of 10 µM verapamil (sensitivity to MDR efflux pumps); details: 10 µM verapamil (P-gp/MDR1 inhibitor)
U87MG cells [4] = test: Lactate dehydrogenase (LDH) release assay; details: 72 h
Experimental: CytoTox96® Non-Radioactive Cytotoxicity Assay kit (Promega, Madison, WI, USA) was used to measure the release of lactate dehydrogenase (LDH) by following the previously described method in [46]. Briefly, U87 MG or HEK-293 cells were incubated for 72 h with compounds 8, 9, or 14 at concentrations ranging from 10^−9 to 10^−6 M for U87 MG cells, and from 10^−4 to 10^−3 M for HEK-293 cells. After treatment, the supernatants were collected, and the intact attached cells were lysed using 0.1% (w/v) Triton X-100 in (0.9%) NaCl solution. Both the LDH released to culture media, as well as the LDH content within the cells, were determined spectrophotometrically at 490 nm on a 96-well plate reader (Infinite 200, Tecan, Salzburg, Austria) by following the manufacturer’s instructions. LDH release was defined by the ratio of LDH released/total LDH present in the cells, with the total LDH being 100%. All the samples were run in quadruplicate.

HT-29 cells [5] = test: Cell growth inhibition assay (MTT)
Method in brief: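 Following overnight (24 h) attachment, cultures received serial compound concentrations from 10^−10 to 10^−2 M and were incubated 72 h before MTT viability measurement. Where efflux-pump sensitivity was tested, IC50 was redetermined with 10 µM verapamil present.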

HeLa cells [6] = test: Cell growth inhibition assay (MTT); details: 72 h after drug exposure
Method in brief: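 Compounds active at a 10 µM single-point screen were titrated (10^−10 to 10^−2 M) on cells in DMEM/10% heat-inactivated FBS. After 72 h, MTT viability gave IC50 values; replicate counts were triplicate wells across three experiments.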

With `COc1ccc2nc(N(C=O)Cc3cccnc3)sc2c1` [Compound 14, N-(6-methoxybenzo[d]thiazol-2-yl)-N-(pyridin-3-ylmethyl)formamide] the “effect on the microtubule network” value (MCF7 cells) was “disruption of the microtubule network”, the “effect on the microtubule network” value (HeLa cells [1]) was “disruption of the microtubule network” and the “effect on the microtubule network” value (U87MG cells [2]) was “disruption of the microtubule network”. For the same molecule, the IC50 (HT-29 cells [3]) was 0.307 µM, the LDH release (U87MG cells [4]; 1 nM) was “around 10%” and the LDH release (U87MG cells [4]; 10 nM) was about 20%. The “cell death (LDH release)” value (U87MG cells [4]; above 100 nM) was 100%, the IC50 (HT-29 cells [5]; Homo sapiens, HT-29, 72 h after drug exposure) was 0.322 µM and the IC50 (HeLa cells [6]; Homo sapiens, HeLa) was 0.107 µM.
`CCNC(=O)N(Cc1cccnc1)c1nc2ccc(OC)cc2s1` [Compound 8] was tested, and the “effect on the microtubule network” value (MCF7 cells) was “disruption of the microtubule network”, the “effect on the microtubule network” value (HeLa cells [1]) was “disruption of the microtubule network” and the “effect on the microtubule network” value (U87MG cells [2]) was “disruption of the microtubule network”. For the same molecule, the IC50 (HT-29 cells [3]) was 0.215 µM, the LDH release (U87MG cells [4]; 1 nM) was about 40% and the LDH release (U87MG cells [4]; 10 nM) was “over 60%”. For the same molecule, the LDH release (U87MG cells [4]; 100 nM) was 100%, the IC50 (HT-29 cells [5]; 72 h after drug exposure) was 0.208 µM and the IC50 (HeLa cells [6]) was 0.085 µM.
